The values below come from PubChem BioAssay AID1996.

≈ marks a conversion by molar mass, not a printed value.

For orientation: solubility (kinetic) means solubility judged after dilution from a stock solution rather than from solid.

The conditions of the data set: buffer; pH 7.4; 200.0 µM.
Compound `Cc1ccc(S(=O)(=O)N2CCC[C@H]2C(=O)Nc2ccc(F)cc2C)cc1` gave a kinetic solubility above 56.5 µg/mL. As for `CC(=O)c1cccc(NC(=O)CNC(=O)Cc2ccccc2)c1`, the figure is 43.7 µg/mL (≈ 141 µM); as for `COc1ccc(N2CCN(CC(=O)NCc3ccc(Cl)cc3)CC2)cc1`, 2.2 µg/mL (≈ 5.88 µM); as for `N/C(=N\OC(=O)c1cccs1)c1cccnc1`, 33.1 µg/mL (≈ 134 µM). `O=C1C(CSCc2ccccc2)NC(=S)N1c1ccccc1` (stereo not given): the kinetic solubility came out at 2.9 µg/mL (≈ 8.83 µM). `CN(NC1OC(=O)c2ccccc21)c1ccccc1[N+](=O)[O-]` (stereo not given) showed a solubility (kinetic) above 44.9 µg/mL. `CCOC(=O)c1c(C)[nH]c(C)c1C(=O)COC(=O)c1cccnc1Cl`: the solubility (kinetic) was above 54.7 µg/mL. With `O=C(CN1CCCCCCC1)NC(=O)NC1CCCCC1`, the solubility (kinetic) came out at 30.2 µg/mL (≈ 102 µM). `N#Cc1cc2c(nc1S(=O)(=O)Cc1ccccc1)CCCC2` had a kinetic solubility of 30.7 µg/mL (≈ 98.3 µM). With `CC(=O)Nc1ccc(NC(=O)CN2C(=O)NC3(CCCCCCC3)C2=O)cc1` the figure was 45.1 µg/mL (≈ 117 µM); with `O=C(CCCc1c[nH]c2ccccc12)NCc1cccs1`, 41.1 µg/mL (≈ 138 µM); with `COc1ccc(C(=O)O)cc1S(=O)(=O)N1CCCc2ccccc21`, above 52.1 µg/mL. As for `Cc1ccsc1C(=O)OCC(=O)NCCCc1ccccc1`, the kinetic solubility worked out at 6.2 µg/mL (≈ 19.5 µM). Turning to `O=C(Cn1cnc2ccccc21)OCC(=O)N1CCCCC1`, the kinetic solubility was above 45.2 µg/mL. In turn, `CCN(c1ccccc1)c1nc2nonc2nc1NCCO` gave a solubility (kinetic) above 45 µg/mL. The compound `Fc1cccc(NC(=S)N2CCN(c3ccccn3)CC2)c1` showed a solubility (kinetic) of 5.6 µg/mL (≈ 17.7 µM). `O=C(NCc1cccnc1)Nc1cccc(Cl)c1` yielded a solubility (kinetic) of 37.2 µg/mL (≈ 142 µM). As for `O=S(=O)(Cc1ccccc1)N1CCN(c2ncccn2)CC1`, the figure is 2.3 µg/mL (≈ 7.22 µM); as for `O=C(CN1C(=O)C2CCCCC2C1=O)Nc1cccc(C(F)(F)F)c1` (stereo not given), above 53.1 µg/mL.

`Cc1ccc(C(=O)NCC(=O)NC2CCC(C)CC2)s1` (stereo not given) returned a solubility (kinetic) of 7.6 µg/mL (≈ 25.8 µM). As for `N#Cc1c(-c2ccc(F)cc2)ccnc1N1CCOCC1`, the figure is above 42.5 µg/mL; as for `Cc1ccc(NC(=O)NCCCN2CCCC2=O)c(C)c1`, above 43.4 µg/mL. With `O=C(COC(=O)c1cccc([N+](=O)[O-])c1)Nc1ncc(Br)s1` the figure was 3.5 µg/mL (≈ 9.06 µM); with `Cc1nc2cc(NC(=O)NCCCO)ccc2o1`, above 37.4 µg/mL.

Consider `O=C(O)C(=O)O.O=C(c1ccco1)N1CCN(Cc2ccccc2F)CC1`, for which the kinetic solubility is 33.9 µg/mL. For `Cn1cccc1CNC(=S)Nc1ccccc1F`, the solubility (kinetic) was above 39.5 µg/mL. As for `O=C(Nc1nsc(-c2ccccc2)n1)c1ccc(F)cc1`, the figure is 32.2 µg/mL (≈ 108 µM); as for `Cc1ccc(CNC(=O)[C@@H](NC(=O)Cc2ccccc2)C(C)C)cc1`, 7.4 µg/mL (≈ 21.9 µM); as for `CCOC(=O)CC(=O)c1[nH]c(C)c(C(=O)OCC)c1C`, 14.3 µg/mL (≈ 50.8 µM). As to `O=C1c2ccc([N+](=O)[O-])cc2S(=O)(=O)N1Cc1ccccc1`, the solubility (kinetic) was determined as 8.3 µg/mL (≈ 26.1 µM). Compound `CCN(CC(=O)N1CCCC1)S(=O)(=O)c1ccccc1` returned a kinetic solubility above 44.5 µg/mL. Consider `Cc1ccc(Cl)cc1NC(=O)C1COc2ccccc2O1` (stereo not given), for which the kinetic solubility was below 0.7 µg/mL. `COc1ccccc1S(=O)(=O)Nc1cccc(S(=O)(=O)N2CCCC2)c1` came in with a solubility (kinetic) above 59.5 µg/mL. As for `CC1(C)CC2CC(C)(CN2C(=O)COC(=O)c2ccc(O)cc2O)C1` (stereo not given), the figure is 23.4 µg/mL (≈ 67.4 µM). `Brc1ccccc1OCCN1CCOCC1.O=C(O)C(=O)O` gave a solubility (kinetic) above 56.4 µg/mL.

The compound `CC(=O)N(C)c1ccc(NC(=O)N2CCOCC2)cc1` showed a kinetic solubility of 41.5 µg/mL (≈ 150 µM). In turn, `CC(=O)Oc1ccc2c(=O)c(/C=N/c3cc(=O)[nH]c(=S)[nH]3)coc2c1` gave a solubility (kinetic) of 30.6 µg/mL (≈ 85.6 µM).

As for `CC1CN(C(=O)NCc2ccccc2)c2cc(Cl)ccc2O1` (stereo not given), the solubility (kinetic) came out at 6.3 µg/mL (≈ 19.9 µM). `C[N+](C)(C)CCOc1ccc([N+](=O)[O-])cc1.[Br-]` gave a solubility (kinetic) above 45.8 µg/mL.

Regarding `COc1ccc(C(=O)NCC(O)CN2CCOCC2)cc1[N+](=O)[O-]` (stereo not given), the solubility (kinetic) was 38.9 µg/mL (≈ 115 µM). `COc1cc(C(=O)Nc2ccc(Nc3ccccc3)cc2)cc(OC)c1OC`: the solubility (kinetic) was found to be 4.4 µg/mL (≈ 11.6 µM). As for `COc1cccc(C(=O)Nc2ccc(C(=O)NCC3CCCO3)cc2)c1` (stereo not given), the solubility (kinetic) is 45.2 µg/mL (≈ 128 µM). Take `CSc1nc(C)cc(Oc2ccc(OCC(N)=O)nn2)n1`: the solubility (kinetic) is above 46.1 µg/mL. With `O=C(COc1ccc2ccc(=O)oc2c1)NC1CCCCC1` the figure was above 45.2 µg/mL; with `Cc1cc2c(cc1C)N(Cc1ccc(Cl)cc1)C1=NCCCN12`, above 48.9 µg/mL; with `O=C(CCC(=O)N1CCN(c2ccccn2)CC1)c1cccs1`, above 49.4 µg/mL. `O=C(Nc1ccncc1)C1CC(=O)N(Cc2ccccc2)C1` (stereo not given) had a solubility (kinetic) above 44.3 µg/mL.

With `CN(C)[C@@H]1C(=O)C(C(N)=O)=C(O)[C@@]2(O)C(=O)C3=C(O)c4c(O)cccc4[C@@](C)(O)[C@H]3[C@H](O)[C@@H]12`, the kinetic solubility turned out to be 47 µg/mL (≈ 102 µM). `CCNc1c([N+](=O)[O-])c(=O)n(CC)c2ccccc12` registered a kinetic solubility of 34.1 µg/mL (≈ 131 µM). With `CC(NC(=O)c1cc2cc(F)ccc2[nH]1)c1ccccc1` (stereo not given), the kinetic solubility is 4.2 µg/mL (≈ 14.9 µM).

`CC(C)(C)OC(=O)N1CCN(CCNC(=O)c2ccccc2)CC1`: the kinetic solubility was above 50 µg/mL.

As to `COc1ccc(N2CCc3c(C)nc4c(OC)cc(OC)cc4c32)cc1`, the solubility (kinetic) is above 52.6 µg/mL. On to `COc1cc(/C=C/C(=O)O)cc(S(=O)(=O)NCC2CCCO2)c1OC` (stereo not given), for which the kinetic solubility was determined as 53.3 µg/mL (≈ 144 µM). As to `CCCCn1c(NC(=O)c2ccco2)c(S(=O)(=O)c2ccc(C)cc2)c2nc3ccccc3nc21`, the kinetic solubility came out at 20.2 µg/mL (≈ 41.3 µM). As for `CC(=O)N/C(=N\c1nc(C)cc(C)n1)Nc1ccc2ccccc2c1`, the solubility (kinetic) is 0.5 µg/mL (≈ 1.5 µM). For the compound `O=C(NCN1CCN(c2ccccc2)CC1)c1cnccn1`, the solubility (kinetic) was above 44.6 µg/mL.

With `CCOc1cc(N2CCOCC2)c(OCC)cc1NC(=O)c1cccc(S(=O)(=O)N2CCOCC2)c1`, the solubility (kinetic) is above 77.9 µg/mL. With `Cc1cc(=O)oc2cc(OCC(=O)Nc3cccnc3)ccc12` the figure was 10.5 µg/mL (≈ 33.8 µM). In the case of `Cc1nc(-c2ccc(NC(=O)C(C)(C)C)cc2)c(-c2ccccc2)o1`, the solubility (kinetic) amounted to 0.8 µg/mL (≈ 2.39 µM). The compound `Nc1nc(COc2ccc(F)cc2Cl)nc(N2CCCCC2)n1` displayed a solubility (kinetic) of 3.4 µg/mL (≈ 10.1 µM). `Cc1c(NC(=O)Nc2ccc3c(c2)OCO3)cccc1[N+](=O)[O-]` registered a kinetic solubility of 0.8 µg/mL (≈ 2.54 µM). On to `CC(C)(C)C(=O)OC/C(N)=N/OC(=O)c1ccc(Cl)cc1`, for which the kinetic solubility amounted to 1.6 µg/mL (≈ 5.12 µM). In turn, `O=C(O)C(=O)O.O=[N+]([O-])c1ccccc1CNC1CCCCCC1` displayed a solubility (kinetic) above 50.8 µg/mL. Compound `Cc1cc(C)nc(NC(N)=S)n1` registered a solubility (kinetic) of 10.4 µg/mL (≈ 57.1 µM). As for `O=C(O)C1=C(Nc2ccccc2)OCC1=O`, the kinetic solubility was above 32.9 µg/mL.

The compound `CN1CCN(C(=S)C(=O)NCc2ccccc2)CC1` displayed a solubility (kinetic) above 41.6 µg/mL. In turn, `COc1ccc(CC(CC(=O)O)C(=O)NCc2ccccc2)cc1` (stereo not given) yielded a kinetic solubility of 48.6 µg/mL (≈ 148 µM). The compound `COC(=O)Nc1ccc(SCC(=O)c2ccccc2)cc1` came in with a solubility (kinetic) of 3.4 µg/mL (≈ 11.3 µM). As to `O=C(Nc1c(-c2ccccc2)nc2ccccn12)c1cccc(F)c1`, the kinetic solubility was 1.4 µg/mL (≈ 4.23 µM).

On to `Cc1ccc(SCc2noc(-c3c(C)noc3C)n2)cc1`, for which the kinetic solubility is 2.1 µg/mL (≈ 6.97 µM). As to `Cc1cccc(C)c1N1C(=O)[C@@H]2C(c3ccccc3Cl)=NO[C@@H]2C1=O`, the solubility (kinetic) turned out to be 39.6 µg/mL (≈ 112 µM). Take `CC1=CC(C)(C)NC(=S)N1c1ccccc1C`: the kinetic solubility was 13.6 µg/mL (≈ 55.2 µM). Regarding `CCC1CCc2sc(C(=O)NCc3ccccn3)cc2C1` (stereo not given), the solubility (kinetic) is 36.8 µg/mL (≈ 122 µM).

With `O=C(C(=O)N1CCN(c2ccc(F)cc2)CC1)c1c[nH]c2ccccc12`, the kinetic solubility is 6.9 µg/mL (≈ 19.6 µM). Consider `COc1ccc(C2NC(=O)C(C#N)=C(S)N2c2ccccc2)cc1OC` (stereo not given), for which the solubility (kinetic) is above 55.1 µg/mL. As for `Cc1ccc(NS(=O)(=O)c2csc(C(N)=O)c2)cc1C`, the figure is 18.9 µg/mL (≈ 60.9 µM); as for `COc1ccc2oc(=N)c(C(=O)Nc3ccccc3Cl)cc2c1`, 0.8 µg/mL (≈ 2.43 µM). Consider `Cc1ccc(N2CC(C(=O)Nc3cccnc3)CC2=O)cc1Cl` (stereo not given), for which the solubility (kinetic) came to 45.8 µg/mL (≈ 139 µM). With `Cc1cc(C(=O)NN=C2CCCC2)c2ccccc2n1` the figure was above 40.1 µg/mL; with `O=C(OCC(=O)c1c[nH]c2ccccc12)c1cncc(Br)c1`, 7.5 µg/mL (≈ 20.9 µM); with `O=C(NCc1cccnc1)Nc1ccc(Cl)c(Cl)c1`, above 44.4 µg/mL. Compound `CCOCc1c(C(=O)NC2CCCCCC2)oc2ccccc12` yielded a kinetic solubility of 0.9 µg/mL (≈ 2.85 µM). In turn, `CN(C)c1cccc(Oc2nc3c(c(=O)n(C)c(=O)n3C)n2C)c1` came in with a kinetic solubility of 32.4 µg/mL (≈ 98.4 µM). Take `CC1=C(C(=O)OCC2CCCCC2)C(c2ccc(F)cc2)NC(=O)N1` (stereo not given): the solubility (kinetic) was determined as 0.5 µg/mL (≈ 1.44 µM). Take `COc1ccc(S(=O)(=O)NCCCN2CCOCC2)cc1F`: the solubility (kinetic) was above 49.9 µg/mL. On to `CC(=O)c1ccc(OC(C)C(=O)NCC2(N3CCOCC3)CCCCC2)cc1` (stereo not given), for which the solubility (kinetic) was above 58.3 µg/mL. Take `CC(C)N(C(=O)Cn1cnc2cc([N+](=O)[O-])ccc2c1=O)C(C)C`: the solubility (kinetic) is above 49.9 µg/mL.

Take `Cc1ccc(N2CCN(C(=O)c3cccs3)CC2)cc1C`: the kinetic solubility is 43.8 µg/mL (≈ 146 µM). For the compound `CCOc1ccccc1NC(=O)NC1Cc2ccccc2C1`, the kinetic solubility is below 0.3 µg/mL. `Cc1cc(C)cc(NC(=O)CCN2C(=O)c3ccccc3C2=O)c1` registered a kinetic solubility of 2.5 µg/mL (≈ 7.76 µM). In turn, `O=C(C[n+]1ccccc1)N1CCCc2ccccc21.[Cl-]` came in with a kinetic solubility above 43.3 µg/mL. `O=C(CCN1C(=O)c2cccc([N+](=O)[O-])c2C1=O)Nc1nccs1` came in with a solubility (kinetic) of 49.3 µg/mL (≈ 142 µM).

As to `COc1cc(SC)ccc1C(=O)N1CCc2ccccc21`, the kinetic solubility was found to be 4.5 µg/mL (≈ 15 µM). The compound `CC(=O)Nc1ccc(/C=C/C(=O)c2ccc3c(c2)OCCO3)cc1` displayed a solubility (kinetic) of 5.2 µg/mL (≈ 16.1 µM).

Take `C[C@@H]1CN(Cc2nc(-c3ccc(Cl)cc3)no2)C[C@H](C)O1`: the solubility (kinetic) is 44 µg/mL (≈ 143 µM). `CC(C)NC(=O)c1cc(-c2cccs2)nc2ccccc12` yielded a kinetic solubility of 4.6 µg/mL (≈ 15.5 µM). For the compound `O=C(O)CC[N+](=O)[O-]`, the solubility (kinetic) is above 17.9 µg/mL. In turn, `CN1CCSc2ccc(C(=O)Nc3ccc(Cl)cc3)cc21` registered a kinetic solubility of 0.5 µg/mL (≈ 1.57 µM). In the case of `O=C(CCS(=O)(=O)c1ccccc1)Nc1nncs1`, the kinetic solubility is above 44.6 µg/mL.

Take `CC(=O)c1ccc(N2CCN(C(=O)Nc3ccc(Cl)cc3)CC2)cc1`: the solubility (kinetic) was found to be 1.3 µg/mL (≈ 3.63 µM).
